Laboratory results as given in US6376510B1, “Neuromuscular relaxants” (Newlaxant LLC, priority 1997, dated 2002).
Read-outs that look alike come from different tables or passages of the source.

Experiments:
[1] = test system: anesthetized rats (evoked responses of anterior tibial muscle); test: Muscle relaxant (neuromuscular blocking) properties, anesthetized rat (Example 9, Table 9); conditions: for Onset: time to 80-85% neuromuscular block
Excerpt: (§1) The data on muscle relaxant action were obtained on anesthetized rats, and when indicated, also on juvenile pigs
(§2) Adult, male albino rats were anesthetized with pentobarbital injected intraperitoneally. Juvenile, Duroc pigs 9-12 kg body weight were anesthetized with Chloralose Nembutal sodium mixture intraperitoneally after deep sedation with inhaled halothane. The trachea was cannulated for artificial respiration via a small animal respirator. The carotid artery was cannulated for recording blood pressure via a transducer and heart rate by a cardiotachograph on a polygraph. One external jugular vein was cannulated for i.v. drug administration. Neuromuscular function was monitored by electromyography, recording evoked responses from the anterior tibial muscle as a result of supramaximal nerve stimuli consisting of single or “train-of-four” rectangular pulses of 0.1-0.2 msec duration every 10-12 seconds, delivered to the sciatic or common peroneal nerve by a laboratory nerve stimulator. Another mode of stimulation included repeated single stimuli delivered at 0.1 Hz or 1 Hz. […] The agents were dissolved in physiologic saline and injected intravenously at appropriate time intervals. The intensity, onset, and duration of neuromuscular block and its type were determined with each agent. Through administering several doses, the doses corresponding to 50%, 80% and 90% neuromuscular block were determined. All agents were compared with selected standard neuromuscular blocking compounds, e.g., rocuronium.
(§3) Onset=time in minutes to 80-85% neuromuscular block.
(§4) RI=recovery index, minutes, spontaneous recovery, 25-75% neuromuscular response.
(§5) VB=vagal block, %, at 80-85% neuromuscular blocking dose.
(§6) HR=change in heart rate, %, at 80-85% neuromuscular blocking dose.
(§7) BP=change in arterial blood pressure, %, at 80-85% neuromuscular blocking dose.

[2] = test system: anesthetized juvenile Duroc pigs; test: animal or person; conditions: for % VB at ED80 nmb (vagal block) / BP (change in arterial blood pressure) / HR (change in heart rate): in vivo; for RI (recovery index): spontaneous recovery, 25-75% neuromuscular response; for Onset: time to 80-85% neuromuscular block
Excerpt: as §1, §2, §3, §4, §5, §6, §7

[3] = test system: anesthetized rats (evoked responses of anterior tibial muscle); test: In vivo neuromuscular block and cardiovascular side effects, anesthetized rat (Example 8, Table 3); conditions: for Onset: time to 80-85% neuromuscular block
How it was run: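 Pentobarbital-anesthetized (i.p.), ventilated adult male rats given saline-dissolved agents i.v.; anterior tibial EMG responses to supramaximal single or train-of-four sciatic/peroneal stimuli, plus 0.1 or 1 Hz stimulation. Doses for 50%, 80%, 90% block derived. Onset: minutes to 80-85% block; RI: 25-75% spontaneous recovery; vagal block, heart rate and blood pressure changes (%) at 80-85% blocking dose.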

[4] = test system: anesthetized cats (evoked responses of anterior tibial muscle); test: animal or person; conditions: for Onset: time to 80-85% neuromuscular block
How it was run: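 Adult cats anesthetized i.p. with 70 mg/kg alpha chloralose plus 0.5 g/kg ethylurethane; agents in saline given i.v. Anterior tibial muscle responses to supramaximal single or train-of-four stimuli of sciatic or peroneal nerve recorded electromyographically and mechanomyographically, alongside blood pressure and heart rate.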

[5] = test system: anesthetized juvenile pigs; test: animal or person; assay type: in vivo; conditions: pig; for ED50: intravenous dose causing 50% neuromuscular block; for Onset: time to 80-85% neuromuscular block
How it was run: (§8)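 Electromyographic and mechanomyographic responses quantified. Monkeys sedated with intramuscular ketamine, then general anesthesia with intravenous pentobarbital and propofol; juvenile pigs induced with inhaled halothane.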

[6] = test system: anesthetized monkeys; test: In vivo neuromuscular block and cardiovascular side effects, monkey (Example 8, Table 6); conditions: for ED50: intravenous dose causing 50% neuromuscular block; for Onset: time to 80-85% neuromuscular block
How it was run: as §8

[7] = test system: rabbits; test: In vivo neuromuscular block and cardiovascular side effects, rabbit (Example 8, Table 7); conditions: for ED50: intravenous dose causing 50% neuromuscular block; for Onset: time to 80-85% neuromuscular block
[8] = test system: dogs; test: animal or person; assay type: in vivo; conditions: dog; for ED50: intravenous dose causing 50% neuromuscular block; for Onset: time to 80-85% neuromuscular block
[9] = rat, spontaneous recovery, 25-75% neuromuscular response
[10] = rat, at 80-85% neuromuscular blocking dose
[11] = spontaneous recovery, 25-75% neuromuscular response

## Bis[N-(3,4-diacetoxybenzyl)-6-azabicyclo[3.2.1]octanium-3-yl]cyclohexane-1,3-dicarboxylate dibromide
[1]; rat, in vivo
  % VB at ED80 nmb (vagal block): 5 (2) %
  BP (change in arterial blood pressure): 0%
  HR (change in heart rate): 0%
[1]; rat, intravenous dose causing 50% neuromuscular block, spread in brackets
  ED50: 384 (42) μg/kg
[1]; [9]
  RI (recovery index): 0.5 (0.04) min
[1]; rat
  Onset: 0.7 (0.05) min
[2]; pig
  % VB at ED80 nmb (vagal block): 70%
  BP (change in arterial blood pressure): 0%
  HR (change in heart rate): 0%
  RI (recovery index): 0.85 min
  Onset: 0.5 min
[2]; pig, intravenous dose causing 50% neuromuscular block
  ED50: 0.78 mg/kg

## COc1cc(C[N+]2(C)C3CCC2CC(OC(=O)C2C4C=CC(C4)C2C(=O)OC2CC4CCC(C2)[N+]4(C)Cc2ccc(OC(C)=O)c(OC)c2)C3)ccc1OC(C)=O.[Br-].[Br-] (stereo not drawn) [bis[N-(4-acetoxy-3-methoxybenzyl)tropanium-3α-yl]trans-3,6-endomethylene-1,2,3,6-tetrahydrophthalate dibromide]
[3]; [10]
  VB (vagal block): 25%
  ΔBP (change in arterial blood pressure): 0%
  ΔH (change in heart rate): 0%
[3]; rat, intravenous dose causing 50% neuromuscular block
  ED50: 0.15 mg/kg
[3]; [9]
  RI (recovery index): 0.5 min
[3]; rat
  Onset: 0.55 min
[4]; cat, intravenous dose causing 50% neuromuscular block
  ED50: 0.193 mg/kg
[4]; cat, spontaneous recovery, 25-75% neuromuscular response
  RI (recovery index): 0.4 min
[4]; cat
  Onset: 0.7 min
[4]; in vivo
  VB (vagal block): 20%
  ΔBP (change in arterial blood pressure): 0%
  ΔH (change in heart rate): 5%
[5]; in vivo
  VB (vagal block): 43%
  ΔBP (change in arterial blood pressure): 0%
  ΔH (change in heart rate): 0%
[5]
  ED50: 0.19 mg/kg
  Onset: 0.6 min
[5]; [11]
  RI (recovery index): 1 min
[6]; in vivo
  ΔBP (change in arterial blood pressure): 0%
  ΔH (change in heart rate): 0%
[6]
  ED50: 0.055 mg/kg
  Onset: 0.85 min
[6]; [11]
  RI (recovery index): 0.5 min
[7]; in vivo
  ΔBP (change in arterial blood pressure): 0%
  ΔH (change in heart rate): 0%
[7]
  ED50: 0.155 mg/kg
  Onset: 0.65 min
[7]; [11]
  RI (recovery index): 0.65 min
[8]; in vivo
  ΔBP (change in arterial blood pressure): −25%
  ΔH (change in heart rate): 40%
[8]
  ED50: 0.35 mg/kg
  Onset: 0.63 min
[8]; [11]
  RI (recovery index): 0.5 min

## C=CC[N+]1([C@H]2C[C@H]3[C@@H]4CC[C@H]5C[C@H](O)[C@@H](N6CCOCC6)C[C@]5(C)[C@H]4CC[C@]3(C)[C@H]2OC(C)=O)CCCC1 [Rocuronium, reference compound]
[3]; Rattus norvegicus, iv
  ED50: 0.45 mg/kg
[3]; male, rat, in vivo
  VB (vagal block): 60%
  ΔBP (change in arterial blood pressure): 0%
  ΔH (change in heart rate): 0%
[3]; rat, in vivo
  RI (recovery index): 1.3 min
[3]; rat
  Onset: 0.95 min
[4]; Felis catus, iv
  ED50: 0.185 mg/kg
[4]; cat, in vivo
  ΔBP (change in arterial blood pressure): 0%
  ΔH (change in heart rate): 0%
[4]; cat
  Onset: 2.1 min
[4]; in vivo
  RI (recovery index): 3.8 min
[5]; Sus scrofa, read-out: ED50
  ED50: 0.35 mg/kg
[5]; in vivo
  RI (recovery index): 3.2 min
  VB (vagal block): 47%
  ΔBP (change in arterial blood pressure): 0%
  ΔH (change in heart rate): 0%
[5]
  Onset: 1.5 min
[6]; Primates, read-out: ED50
  ED50: 0.013 mg/kg
[6]; in vivo
  RI (recovery index): 5.6 min
  ΔBP (change in arterial blood pressure): 0%
  ΔH (change in heart rate): 0%
[6]
  Onset: 3.5 min
[7]; Oryctolagus cuniculus, read-out: ED50
  ED50: 0.03 mg/kg
[7]; in vivo
  RI (recovery index): 2.4 min
  ΔBP (change in arterial blood pressure): 0%
  ΔH (change in heart rate): 0%
[7]
  Onset: 1.1 min
[8]; Canis lupus familiaris, read-out: ED50
  ED50: 0.076 mg/kg
[8]; in vivo
  RI (recovery index): 3.3 min
  ΔBP (change in arterial blood pressure): 0%
  ΔH (change in heart rate): 0%
[8]
  Onset: 1.9 min
[1]; Rattus norvegicus, iv
  ED50: 0.45 mg/kg
[1]; male, rat, in vivo
  % VB at ED80 nmb (vagal block): 60%
  BP (change in arterial blood pressure): 0%
  HR (change in heart rate): 0%
[1]; rat, in vivo
  RI (recovery index): 1.3 min
[1]; rat
  Onset: 0.95 min
[2]; Duroc, pig
  % VB at ED80 nmb (vagal block): 47%
  BP (change in arterial blood pressure): 0%
  HR (change in heart rate): 0%
[2]; Sus scrofa, iv
  ED50: 0.35 mg/kg
[2]; pig
  RI (recovery index): 3.2 min
  Onset: 1.5 min
